Laboratory results as given in US4414388A, “1-Oxo-1H-thiazolo[3,2-a]pyrimidine-2-carboxamides” (Pfizer Inc., priority 1981, dated 1983).
“Also recorded” adds a separate entry of the source. Counter-ions that a name gives are not always drawn. Blank lines part the entries; values can stand above or below the compound they belong to.

Legend:
IgE = assay: passive cutaneous anaphylaxis (PCA) test, oral, IgE (reaginic antiserum) site; type: in vivo, rat; conditions: Table I; for inhibition in vivo at 30 mg/kg: Rattus norvegicus, read-out: Oral Activity (% of Protection) of Amides in the PCA Test, IgE 30 mg./kg.
Experimental: (§1) The antiallergy property of the compounds of this invention is evaluated by the passive cutaneous anaphylaxis (PCA) test (Ovary, J. Immun., 81, 355, 1958). In the PCA test, normal animals are injected intradermally (i.d.) with antibodies contained in serum obtained from actively sensitized animals. The animals are then challenged intravenously with antigen mixed with a dye such as Evans' Blue. The increased capillary permeability caused by the antigen-antibody reaction causes the dye to leak from the site of the antibody injection. The test animals are then asphyxiated and the intensity of the reaction determined by measuring the diameter and intensity of the blue coloration on the inner surface of the animals' skin.
(§2) The PCA test is a measure of the anti-allergic (especially anti-asthmatic) activity of a compound. Compounds which inhibit a positive PCA test induced by the rat immunochemical counterpart of human immunoglobulin E (IgE), or reagin, are considered to have anti-allergic activity (C. Mota, Ann. N.Y. Acad. Sci., 103, 264 1963). (Reagin is primarily immunoglobulin E [IgE] and is the principal immunoglobulin responsible for allergic asthma, anaphylaxis, hay fever, food sensitivities and certain manifestations of drug sensitivities, although recent evidence ascribes to the IgG class of antibodies a significant role in the mediation of allergic diseases). Such compounds when administered to a sensitized subject, human or animal, prior to the time when the subject comes into contact with antigens or substances to which it is allergic, will prevent the allergic reaction which would otherwise occur. They, therefore, provide a method for the prophylactic treatment of allergy or anaphylactic reactions of a reagin mediated nature.
(§3) To put it another way, such compounds block the release of mediators resulting from the antigen-antibody (allergic) reaction as illustrated in the PCA test using rat homocytotropic antibody--a known correlate of human reaginic antibody. Inhibition of reaginic antigen-antibody reactions in rats, the test animal of the PCA test, is regarded as representative of inhibition of human reaginic antigen-antibody reactions which occur during allergic episodes.
(§4) The ability of agents to interfere with PCA reactions is measured in male Charles River Wistar rats, 170-210 g. Reaginic antiserum, rich in IgE antibodies, is prepared according to Petillo et al., Int. Arch. Allergy, 44, 309 (1973). Hyperimmune antiserum rich in IgG antibodies to hen egg albumin is prepared according to Orange et al., J. Exptl. Med., 127, 767 (1968). Forty-eight hours prior to antigen challenge, the reaginic antiserum is injected intradermally (i.d.) into the shaved skin of a normal rat's back; 5 hours before challenge the hyperimmune antisera is similarly injected. At a third site 60 mcg. histamine dihydrochloride and 0.5 mcg. serotonin creatinine sulfate are injected i.d. just prior to antigen challenge as a check for antihistaminic, antiserotonin and unspecific types of blockage; the compounds of the instant invention or saline are then administered i.v. and immediately followed by the challenge of 5 mg. egg albumen and 2.5 mg. Evans' Blue dye in saline. In the case of oral administration Evans' Blue dye and egg albumin are given 5 minutes after administration of the drug. Thirty minutes later the animals are asphyxiated using chloroform and the skin of the back removed and reversed for observation. A score is assigned each injection site equal to the product of the diameter of the site in mm. and a grade of 0.1, 0.5, 1, 2, 3 or 4 proportional to intensity of dye coloration. The scores for a given injection site are summed for each group of five animals and compared to the saline treated controls. The difference is expressed as percent blockage due to the compound employed. […]

IgG = assay: passive cutaneous anaphylaxis (PCA) test, oral, IgG (hyperimmune antiserum) site; type: in vivo, rat; conditions: Table I; for inhibition in vivo at 30 mg/kg: Rattus norvegicus, read-out: Oral Activity (% of Protection) of Amides in the PCA Test, IgG 30 mg./kg.
Experimental: as §1, §2, §3, §4

[1] = plasma concentration / oral absorption in dogs; type: in vivo, dog; conditions: dog; oral dosing of III
Experimental: (§5) This is supported by the observations of plasma concentrations of 3 to 7 μg/ml one hour after oral administration of III, 50 to 300 mg/kg.

[2] = plasma concentration / oral absorption in rats; type: in vivo, rat; conditions: rat; oral dosing of III
Experimental: as §5

allergy and ulcer = assay: antiallergy and antiulcer activity, general statement; conditions: in vivo
Experimental: as §1
The antiulcer activity of the compounds of the present invention is evaluated by the so-called cold-restraint stressed rat assay. Alternatively, the antiulcer activity is determined in a newly established ethanol-induced rat ulcer assay described below.

[3] = test system: dextran induced release of histamine; assay: dextran induced release of histamine into the rat peritoneal cavity; type: in vivo; conditions: ip
Text: Compound III inhibits dextran induced release of histamine into the rat peritoneal cavity.

mediators of anaphylaxis = conditions: cited from earlier work
gastric ulcers = conditions: animals, including humans; cited from earlier work
[4] = water solubility and hygroscopicity of the sodium salt; type: physicochemical; conditions: sodium salt (trihydrate)

SMILES: O=C(Nc1nnn[nH]1)c1cnc2sc3c(n2c1=O)CCC(c1ccccc1)C3 (centres unmarked) [Amide I, R1R2 = CH2 CH(C5 H6)CH2 CH2, N-(5-tetrazolyl)-1-oxo-1H-7-phenylcyclohexenothiazolo[3,2-a]pyrimidine-2-carboxamide]
inhibition in vivo at 30 mg/kg (IgE): 4%
inhibition in vivo at 30 mg/kg (IgG): 7%

plasma levels of the carboxylic acid metabolite compared with III, dog [1]: comparable to those of III
plasma levels of the carboxylic acid metabolite compared with III, rat [2]: comparable to those of III
SMILES: O=C(O)c1cnc2sc3c(n2c1=O)CCCC3 [Acid II, R1R2 = (CH2)4, 1-oxo-1H-cyclohexenothiazolo[3,2-a]pyrimidine-2-carboxylic acid]
activity of metabolite, in words (allergy and ulcer): good activity

SMILES: O=C(O)c1cc(=O)c2c(OCC(O)COc3cccc4oc(C(=O)O)cc(=O)c34)cccc2o1 [Intal, 1,3-bis(2-carboxycromon-5-yloxy)-2-hydroxy-propane]
ED50 [3]: 0.014 mg/kg
bronchodilator activity (mediators of anaphylaxis; in vivo): not a bronchodilator
release of mediators of anaphylaxis (mediators of anaphylaxis; in vivo): inhibition of release of mediators of anaphylaxis
oral activity/efficacy of Intal (mediators of anaphylaxis; oral route): lacks efficacy by the oral route; also recorded: not active by the oral route; also recorded: lack of oral efficacy

SMILES: O=C(Nc1nnn[nH]1)c1cnc2sc3c(n2c1=O)CCCCC3 [Amide I, R1R2 = (CH2)5, N-(5-tetrazolyl)-1-oxo-1H-cycloheptenothiazolo[3,2-a]pyrimidine-2-carboxamide]
Oral Activity (% of Protection) of Amides in the PCA Test, IgE 10 mg./kg. (IgE): 25%
Oral Activity (% of Protection) of Amides in the PCA Test, IgG 10 mg./kg. (IgG): 38%

SMILES: CC1CCc2c(sc3ncc(C(=O)Nc4nnn[nH]4)c(=O)n23)C1 (centres unmarked) [Amide I, R1R2 = CH2 CH(CH3)CH2 CH2, N-(5-tetrazolyl)-1-oxo-1H-7-methylcyclohexenothiazolo[3,2-a]pyrimidine-2-carboxamide]
inhibition in vivo at 30 mg/kg (IgE): 44%
inhibition in vivo at 30 mg/kg (IgG): 33%

SMILES: CC(C)c1csc2ncc(C(=O)Nc3nnn[nH]3)c(=O)n12 [Amide I, R1 = H, R2 = CH(CH3)2, N-(5-tetrazolyl)-1-oxo-1H-7-isopropylthiazolo[3,2-a]pyrimidine-2-carboxamide]
Oral Activity (% of Protection) of Amides in the PCA Test, IgE 10 mg./kg. (IgE): 72%
Oral Activity (% of Protection) of Amides in the PCA Test, IgG 10 mg./kg. (IgG): 53%

SMILES: CCc1csc2ncc(C(=O)Nc3nnn[nH]3)c(=O)n12 [Amide I, R1 = H, R2 = C2 H5, N-(5-tetrazolyl)-1-oxo-1H-7-ethylthiazolo[3,2-a]pyrimidine-2-carboxamide]
Oral Activity (% of Protection) of Amides in the PCA Test, IgE 10 mg./kg. (IgE): 70%
Oral Activity (% of Protection) of Amides in the PCA Test, IgG 10 mg./kg. (IgG): 44%

SMILES: CCC(C)c1csc2ncc(C(=O)Nc3nnn[nH]3)c(=O)n12 (centres unmarked) [N-(5-Tetrazolyl)-1-oxo-1H-7-(2-butyl)thiazolo[3,2-a]pyrimidine-2-carboxamide]
inhibition in vivo at 30 mg/kg (IgE): 6%
inhibition in vivo at 30 mg/kg (IgG): 6%

SMILES: CC1(C)[C@@H](OC(=O)CCC(=O)O)CC[C@]2(C)[C@H]3C(=O)C=C4[C@@H]5C[C@@](C)(C(=O)O)CC[C@]5(C)CC[C@@]4(C)[C@]3(C)CC[C@@H]12 [carbenoxolone sodium, disodium salt of the hemisuccinate of glycyrrhetinic acid]
effect on gastric ulcers (gastric ulcers): prevent formation of and to accelerate healing of gastric ulcers

SMILES: O=C(Nc1nnn[nH]1)c1cnc2sc3c(n2c1=O)CCCCCC3 [Amide I, R1R2 = (CH2)6, N-(5-Tetrazolyl)-1-oxo-1H-cyclooctenothiazolo[3,2-a]pyrimidine-2-carboxamide]
Oral Activity (% of Protection) of Amides in the PCA Test, IgE 10 mg./kg. (IgE): 94%
Oral Activity (% of Protection) of Amides in the PCA Test, IgG 10 mg./kg. (IgG): 57%

SMILES: CN/C(=N/CCSCc1nc[nH]c1C)NC#N [cimetidine]
effect on gastric ulcers (gastric ulcers): alleviates ulcers by reducing gastric acid secretion

SMILES: O=C(Nc1nnn[nH]1)c1cnc2sc3c(n2c1=O)CCC3 [Amide I, R1R2 = (CH2)3, N-(5-tetrazolyl)-1-oxo-1H-cyclopentenothiazolo[3,2-a]pyrimidine-2-carboxamide]
Oral Activity (% of Protection) of Amides in the PCA Test, IgE 3 mg./kg. (IgE; 3 mg./kg.): 46%
Oral Activity (% of Protection) of Amides in the PCA Test, IgG 3 mg./kg. (IgG; 3 mg./kg.): 43%

SMILES: CC1(C)CCc2c(sc3ncc(C(=O)Nc4nnn[nH]4)c(=O)n23)C1 [Amide I, R1R2 = CH2 C(CH3)2 CH2 CH2, N-(5-Tetrazolyl)-1-oxo-1H-7,7-dimethylcyclohexenothiazolo[3,2-a]pyrimidine-2-carboxamide]
inhibition in vivo at 30 mg/kg (IgE): 38%
inhibition in vivo at 30 mg/kg (IgG): 27%

SMILES: O=C(Nc1nnn[nH]1)c1cnc2sc3c(n2c1=O)CCCC3 [sodium salt (trihydrate), sodium N-(5-tetrazolyl)-1-oxo-1H-cyclohexenothiazolo[3,2-a]pyrimidine-2-carboxamide trihydrate]
hygroscopicity [4]: non-hygroscopic
water solubility [4]: good water solubility

SMILES: CCc1sc2ncc(C(=O)Nc3nnn[nH]3)c(=O)n2c1CC [Amide I, R1 = C2 H5, R2 = C2 H5, N-(5-tetrazolyl)-1-oxo-1H-6,7-diethylthiazolo[3,2-a]pyrimidine-2-carboxamide]
Oral Activity (% of Protection) of Amides in the PCA Test, IgE 10 mg./kg. (IgE): 62%
Oral Activity (% of Protection) of Amides in the PCA Test, IgG 10 mg./kg. (IgG): 49%

SMILES: CC(C)(C)c1csc2ncc(C(=O)Nc3nnn[nH]3)c(=O)n12 [Amide I, R1 = H, R2 = C(CH3)3, N-(5-tetrazolyl)-1-oxo-1H-7-(2-methyl-2-propyl)thiazolo[3,2-a]pyrimidine-2-carboxamide]
Oral Activity (% of Protection) of Amides in the PCA Test, IgE 10 mg./kg. (IgE): 37%
Oral Activity (% of Protection) of Amides in the PCA Test, IgG 10 mg./kg. (IgG): 20%

SMILES: CCc1c(C)sc2ncc(C(=O)Nc3nnn[nH]3)c(=O)n12 [Amide I, R1 = CH3, R2 = C2 H5, N-(5-tetrazolyl)-1-oxo-1H-6-methyl-7-ethylthiazolo[3,2-a]pyrimidine-2-carboxamide]
Oral Activity (% of Protection) of Amides in the PCA Test, IgE 10 mg./kg. (IgE): 75%
Oral Activity (% of Protection) of Amides in the PCA Test, IgG 10 mg./kg. (IgG): 57%
